Experimental data from PMC10247784, “Physiological activation of human and mouse bitter taste receptors by bile acids” (Communications Biology, 2023).
“Also recorded” adds a separate entry of the source.

Test system: mouse Tas2rs
Assay: Calcium imaging screening of 34 mouse bitter taste receptors
Assay type: cell-based
Details: screening of 34 mouse receptors; listed as CDCA
Protocol: This set of bile acids was chosen because of their commercial availability in high purities, their diversity within the class of bile acids and their previous detection and quantitation in human blood. Stock solutions were prepared in DMSO. […] Maximal applied concentrations are due to solubility problems or receptor-independent artefacts during measurement at high bile acid concentrations (Table 1, Table 2)[12],[58]. […]
Cells were loaded using the calcium-sensitive fluorescent dye Fluo-4-AM (Abcam, Cambridge, Great Britain) in the presence of 2.5 mM probenecid (Sigma-Aldrich, Steinheim, Germany) the day after transfection[13],[41]. […] For automated agonist application and measurement of fluorescence changes, a FLIPR^TETRA device (Molecular Devices, San José, United States) was used. […]
Measured data were negative control corrected by subtracting the signal of the mock-transfected cells and exported to Microsoft Excel using the FLIPR software ScreenWorks 4.2. In Microsoft Excel software, standardization of maximum fluorescence intensities to the basal fluorescence and normalization to the buffer-only control was done to calculate the relative fluorescence changes (ΔF/F). […]

C[C@H](CCC(=O)O)[C@H]1CC[C@H]2[C@@H]3[C@H](O)C[C@@H]4C[C@H](O)CC[C@]4(C)[C@H]3CC[C@]12C [Chenodeoxycholic Acid, chenodeoxycholic acid]
Response of mouse Tas2rs: did not activate any; also recorded: did not obtain any response
